{"source": "patent US5220017A", "about": "“Cholecystokinin antagonists” (Merck & Co., Inc., priority 1992, dated 1993)", "key": {"gastrin": {"test_system": "gastrin", "details": "literature, in words; cited from earlier work"}, "[1]": {"target": "T1, CCK receptor (guinea pig brain cortex) (Cavia porcellus, UniProt H0VZC5)", "T1 construct": "the cortex was removed and homogenized in 25 mL ice-cold 0.32M sucrose; from tissue; host or cells: brain cortex P2 membranes, male Hartley guinea pig", "T1 sequence (H0VZC5 1-426)": "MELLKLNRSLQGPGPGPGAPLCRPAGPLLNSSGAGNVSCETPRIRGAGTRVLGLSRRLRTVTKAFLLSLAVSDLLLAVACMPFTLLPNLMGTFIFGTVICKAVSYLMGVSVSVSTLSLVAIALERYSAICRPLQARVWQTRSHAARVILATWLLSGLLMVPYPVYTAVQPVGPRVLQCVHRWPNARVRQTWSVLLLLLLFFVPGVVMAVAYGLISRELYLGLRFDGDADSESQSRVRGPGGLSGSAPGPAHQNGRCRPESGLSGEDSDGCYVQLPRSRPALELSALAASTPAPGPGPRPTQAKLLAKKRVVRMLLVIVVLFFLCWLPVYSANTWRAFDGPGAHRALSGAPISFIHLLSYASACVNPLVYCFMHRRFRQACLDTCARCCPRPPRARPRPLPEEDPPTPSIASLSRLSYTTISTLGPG", "assay": "CCK Receptor Binding (Brain), 125I-CCK-8 displacement", "design": "species or system guinea pig (male Hartley)", "details": "guinea pig cortex membranes, 50 pM 125I-CCK-8, 25° C., 2 hours, pH 6.5", "experimental": "2. CCK Receptor Binding (Brain)\nCCK-8 sulphated was radiolabelled and the binding was performed according to the description for the pancreas method with minor modifications.\nMale Hartley guinea pigs (300-500 g) were sacrificed by decapitation and the cortex was removed and homogenized in 25 mL ice-cold 0.32M sucrose. The homogenates were centrifuged at 1000 g for 10 minutes and the resulting supernatant was recentrifuged at 20,000 g for 20 minutes. […] All assays were run in duplicate. The reaction mixtures were incubated at 25° C. for 2 hours and then the reaction was terminated on Whatman GF/C filters by rapid filtration (Brandell 24 well cell Harvester) with 3×5 ml washes of cold 100 mM NaCl. The radioactivity on the filters was then counted with a LKB gamma counter.\nEffect of The Compounds of Formula I on ^125 I-CCK-8 receptor binding\n(§1) Drug displacement studies were performed with at least 10 concentrations of compounds of formula 1 and the IC50 values were determined by regression analysis."}, "[2]": {"target": "T2, CCK receptor (rat pancreas) (Rattus norvegicus, UniProt P30551)", "T2 construct": "The whole pancreas was dissected free of fat tissue and was homogenized; from tissue; host or cells: whole pancreas membranes, male Sprague-Dawley rat", "T2 sequence (P30551 1-444)": "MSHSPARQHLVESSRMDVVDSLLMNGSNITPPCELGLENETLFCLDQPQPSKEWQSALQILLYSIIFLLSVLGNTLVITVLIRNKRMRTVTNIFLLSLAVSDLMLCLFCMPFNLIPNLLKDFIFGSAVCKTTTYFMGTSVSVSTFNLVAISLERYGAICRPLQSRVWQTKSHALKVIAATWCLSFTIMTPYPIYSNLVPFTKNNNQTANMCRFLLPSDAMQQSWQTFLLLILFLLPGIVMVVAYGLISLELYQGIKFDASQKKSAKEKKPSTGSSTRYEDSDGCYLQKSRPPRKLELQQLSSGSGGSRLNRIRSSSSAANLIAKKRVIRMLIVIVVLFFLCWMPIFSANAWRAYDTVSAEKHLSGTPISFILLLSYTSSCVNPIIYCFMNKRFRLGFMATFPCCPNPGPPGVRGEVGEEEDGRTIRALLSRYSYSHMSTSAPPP", "assay": "CCK Receptor Binding (Pancreas), 125I-CCK-8 displacement", "design": "species or system rat (male Sprague-Dawley)", "experimental": "1. CCK Receptor Binding (Pancreas)\nCCK-8 sulphated was radiolabelled with ^125 I-Bolton Hunter reagent (2000 Ci/mmole). Receptor binding was performed according to Chang and Lotti (Proc. Natl. Acad. Sci. 83, 4923-4926, 1986) with minor modifications.\nMale Sprague-Dawley rats (150-200 g) were sacrificed by decapitation. The whole pancreas was dissected free of fat tissue and was homogenized in 25 volumes of ice-cold 10 mM Hepes buffer with 0.1% soya bean trypsin inhibitor (pH 7.4 at 25° C.) with a Kinematica Polytron. The homogenates were centrifuged at 47,800 g for 10 min. Pellets were resuspended in 10 volumes of binding assay buffer (20 mM Hepes, 1 mM EGTA, 5 mM MgCl2, 150 mM NaCl, bacitracin 0.25 mg/ml, soya bean trypsin inhibitor 0.1 mg/ml, and bovine serum albumin 2 mg/ml, pH 6.5 at 25° C.) using a teflon homogenizer, 15 strokes at 500 rpm. The homogenate was further diluted in binding assay buffer to give a final concentration of 0.5 mg original wet weight/1 ml buffer. […] All assays were run in duplicate. […] The radioactivity on the filters was counted with a LKB gamma counter. […]\nas §1"}, "CCK receptor": {"test_system": "CCK receptor", "details": "literature, in words; cited from earlier work"}, "CCK-B receptors": {"test_system": "CCK-B receptors", "details": "literature, in words; cited from earlier work"}}, "note": "Non-standard residues stand in square brackets, D forms with d. Residues, ends and D or L forms follow the SMILES beside them. *: point of attachment. sY = N[C@@H](Cc1ccc(OS(=O)(=O)O)cc1)C(=O)O; Cbz = O=C(OCc1ccccc1)*; Boc = CC(C)(C)OC(=O)*", "data": [{"smiles": "CCCN(CCC)C(=O)C(CCC(=O)O)NC(=O)c1ccccc1", "note": "(stereo not shown) [proglumide]", "values": [{"measurement": "gastrin antagonism in vitro", "setting": "gastrin", "value": "very weak in vitro antagonists"}]}, {"smiles": "Cc1cccc(NC(=O)N(CCC(=O)O)C2N=C(c3ccccc3)c3ccccc3N(C)C2=O)c1", "note": "(stereo not shown) [Example 2, N-{1,3-Dihydro-1-methyl-2-oxo-5-phenyl-1H-1,4-benzodiazepin-3-yl}-N-carboxyethyl-N'-{[3-methylphenyl]-urea}]", "values": [{"measurement": "IC50", "setting": "[1]", "value": 0.51, "unit": "µM"}, {"measurement": "IC50", "setting": "[2]", "value": "> 3", "unit": "µM"}]}, {"smiles": "CCCC(=O)Nc1nc2c(ncn2C2O[C@H]3COP(=O)(O)O[C@@H]3[C@@H]2OC(=O)CCC)c(=O)[nH]1", "note": "(stereo partly shown) [dibutyryl cyclic GMP]", "values": [{"measurement": "CCK antagonist/agonist character", "setting": "CCK receptor", "value": "most potent"}]}, {"smiles": "Cc1cccc(N(CCC(=O)O)C(=O)NC2N=C(c3ccccc3)c3ccccc3N(C)C2=O)c1", "note": "(stereo not shown) [Example 1, N-{1,3-Dihydro-1-methyl-2-oxo-5-phenyl-1H-1,4-benzodiazepin-3-yl}-N'-carboxyethyl-N'-{[3-methylphenyl]-urea}]", "values": [{"measurement": "IC50", "setting": "[1]", "value": 3.68, "unit": "µM"}, {"measurement": "IC50", "setting": "[2]", "value": "> 3", "unit": "µM"}]}, {"smiles": "CSCC[C@H](NC(=O)[C@H](Cc1ccc(OS(=O)(=O)O)cc1)NC(=O)OCc1ccccc1)C(=O)NCC(=O)N[C@@H](Cc1c[nH]c2ccccc12)C(=O)N[C@@H](CCSC)C(=O)N[C@@H](CC(=O)O)C(N)=O", "note": "[Cbz-Tyr(SO3 H)-Met-Gly-Trp-Met-Asp-NH2] (Cbz-[sY]MGWMD-NH2)", "values": [{"measurement": "CCK antagonist/agonist character", "setting": "CCK receptor", "value": "partial agonist"}]}, {"smiles": "CSCC[C@H](NC(=O)OC(C)(C)C)C(=O)N[C@@H](CC(=O)O)C(=O)N[C@@H](Cc1ccccc1)C(N)=O", "note": "[Boc-Met-Asp-Phe-NH2] (Boc-Met-Asp-Phe-NH2)", "values": [{"measurement": "CCK antagonist/agonist character", "setting": "CCK receptor", "value": "can function as CCK antagonists"}]}, {"smiles": "CSCC[C@H](N)C(=O)N[C@@H](CC(=O)O)C(=O)N[C@@H](Cc1ccccc1)C(N)=O", "note": "[Met-Asp-Phe-NH2] (H-Met-Asp-Phe-NH2)", "values": [{"measurement": "CCK antagonist/agonist character", "setting": "CCK receptor", "value": "can function as CCK antagonists"}]}, {"smiles": "Cc1cccc(NC(=O)N[C@@H]2N=C(c3ccccc3)c3ccccc3N(C)C2=O)c1", "note": "[(R)-N-(2,3-dihydro-1-methyl-2-oxo-5-phenyl-1H-1,4-benzodiazepin-3-yl)-N^1-(3-methylphenyl) urea]", "values": [{"measurement": "CCK-B antagonist potency and selectivity", "setting": "CCK-B receptors", "value": "potent and selective antagonist of CCK-B receptors"}]}]}
